According to patent US20240158393A1, “PYRIDONE COMPOUNDS AND METHODS OF USE” (Exelixis, Inc., priority 2021, published 2024):

Legend:
Human Axl = target: T1, Human Axl (Homo sapiens, UniProt P30530); assay: Human AXL kinase assay (33P radiometric / HTRF KinEase); format: biochemical; conditions: protocols of Examples A-1 and/or A-2
T1 construct: Human AXL (residues 464-885)
T1 sequence (P30530 1-894 Q764R): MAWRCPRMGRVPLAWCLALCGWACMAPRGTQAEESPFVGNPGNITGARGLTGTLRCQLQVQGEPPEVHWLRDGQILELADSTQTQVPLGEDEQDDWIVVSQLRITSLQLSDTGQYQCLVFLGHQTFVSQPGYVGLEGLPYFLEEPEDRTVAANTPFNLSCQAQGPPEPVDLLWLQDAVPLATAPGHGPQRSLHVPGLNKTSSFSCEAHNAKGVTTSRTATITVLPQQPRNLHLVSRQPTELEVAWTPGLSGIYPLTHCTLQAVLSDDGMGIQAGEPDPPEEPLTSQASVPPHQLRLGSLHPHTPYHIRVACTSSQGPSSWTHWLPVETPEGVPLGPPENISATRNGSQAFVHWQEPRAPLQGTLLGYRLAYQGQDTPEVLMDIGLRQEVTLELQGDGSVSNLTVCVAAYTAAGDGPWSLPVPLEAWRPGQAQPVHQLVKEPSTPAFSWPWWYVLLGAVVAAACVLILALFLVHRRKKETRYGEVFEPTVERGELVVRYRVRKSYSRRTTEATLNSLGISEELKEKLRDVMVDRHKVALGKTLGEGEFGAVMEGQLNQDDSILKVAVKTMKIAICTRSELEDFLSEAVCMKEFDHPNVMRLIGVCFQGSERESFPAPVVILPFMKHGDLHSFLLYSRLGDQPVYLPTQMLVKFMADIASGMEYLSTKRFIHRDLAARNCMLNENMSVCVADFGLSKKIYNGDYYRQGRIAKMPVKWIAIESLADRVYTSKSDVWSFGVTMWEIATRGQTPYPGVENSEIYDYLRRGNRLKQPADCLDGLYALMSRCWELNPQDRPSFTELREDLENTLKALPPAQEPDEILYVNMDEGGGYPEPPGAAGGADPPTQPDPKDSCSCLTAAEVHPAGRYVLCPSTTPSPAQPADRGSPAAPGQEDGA
Procedure: Kinase activity and compound inhibition were investigated using the ^33P-Phosphoryl transfer radiometric kinase assay, performed using the KinaseProfiler™ service of Eurofins Pharma Discovery Services UK Limited. Dose-response experiments were performed using nine compound concentrations in a 96-well microtiter plate. For each assay, all compounds were prepared to a 50× final assay concentration (50 μM) in 100% DMSO, then diluted in a half-log series, with the final top concentration at 1 μM. This working stock of the compound was added to the assay well as the first component in the reaction, followed by the remaining components as detailed in the following assay protocols below. The positive control wells (100% kinase activity) contain all components of the reaction including 2% DMSO (control for solvent effects), except the compound of interest. Blank wells contain all components of the reaction, with the reference inhibitor, staurosporine. This reference compound was used to abolish kinase activity and generated the 0% kinase activity base-line. IC50 values were calculated by nonlinear regression analysis using the sigmoidal dose-response (variable slope) curve fit on XLFit version 5.3 (ID Business Solutions).
Kinase activity and compound inhibition were also investigated using the HTRF® KinEase assay (Cisbio Cat #62TKOPEB) per manufacturer's instructions. In short, compounds were delivered in 300 nL volumes at 10 different concentrations in DMSO (3% final) to empty 384-well assay plates (Corning cat #3824). A mixture of enzyme, 1 μM biotinylated peptide substrate, and buffer in 10 μL volume was added. The assay was started upon the addition of ATP (at Km). The 10 μL reaction was incubated at room temperature. The reaction was stopped upon the addition of detection buffer containing streptavidin-XL665 (5 μL) and TK antibody-Eu3+(5 μL). After a 60 min incubation at room temperature, the fluorescence at 665 nm and 620 nm was read on an Envision microplate reader (Perkin Elmer).
Kinase activity normalized to DMSO (100% activity) and reference compound at 1 μM and (0% activity) was calculated using the fluorescence ratio […]. IC50 values were calculated by nonlinear regression analysis using a 4-parameter logistic curve fit in ActivityBase XE (IDBS).
Example A-1: Human Axl (residues H473-A894 with Q764R, 161 nM) was incubated with 8 mM MOPS pH 7.0, 0.2 mM EDTA, 250 μM KKSRGDYMTMQIG (SEQ ID NO:1), 10 mM magnesium acetate and 10 μM [γ-^33P-ATP]. The reaction was initiated by the addition of the Mg/ATP mix. After incubation for 40 minutes at room temperature, the reaction was stopped by the addition of phosphoric acid to a concentration of 0.5%. A reaction aliquot of 10 μL was then spotted onto a P30 filtermat and washed four times for 4 minutes in 0.425% phosphoric acid and once in methanol prior to drying and scintillation counting. Incorporated ^33P was measured using the Wallac Microbeta scintillation counter (Perkin Elmer).
Example A-2: Human AXL (residues 464-885; CarnaBio, 1 ng/well) was also incubated with enzymatic buffer (Cisbio) supplemented with 5 mM MgCl2, 1 mM DTT, and Supplemental Enzymatic Buffer (SEB; Cisbio). The mixture was added to the pre-plated compounds. The reaction was initiated upon addition of ATP at Km (1.0 μM). The reaction was incubated at room temperature for 50 min and stopped upon the addition of SA-XL665 and TK-antibody both diluted in EDTA-containing kinase detection buffer (Cisbio). The kinase activity was calculated as stated above and the IC50 values were reported.

Human Met = target: T2, Human Met (Homo sapiens, UniProt P08581); assay: Human Met kinase assay (33P radiometric / HTRF KinEase); format: biochemical; conditions: protocols of Examples D-1 and/or D-2; read-out: c-Met IC50
T2 construct: Human MET (residues 956-1390)
T2 sequence (P08581 974-1390 limits assumed): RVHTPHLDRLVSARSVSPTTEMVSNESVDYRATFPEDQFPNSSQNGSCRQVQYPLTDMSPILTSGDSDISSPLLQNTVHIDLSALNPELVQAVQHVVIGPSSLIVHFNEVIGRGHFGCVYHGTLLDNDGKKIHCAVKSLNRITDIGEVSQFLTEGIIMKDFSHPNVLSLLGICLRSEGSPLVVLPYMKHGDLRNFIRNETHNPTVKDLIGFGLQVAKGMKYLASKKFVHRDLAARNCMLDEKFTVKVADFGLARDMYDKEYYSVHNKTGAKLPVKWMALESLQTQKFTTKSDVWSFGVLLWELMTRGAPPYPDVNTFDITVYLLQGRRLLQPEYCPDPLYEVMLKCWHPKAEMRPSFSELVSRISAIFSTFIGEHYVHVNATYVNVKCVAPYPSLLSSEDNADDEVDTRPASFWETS
In short: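 Two formats gave IC50s by curve fitting. HTRF KinEase used MET residues 956-1390 with 1 μM biotin-peptide and 3.0 μM ATP (Km) for 40 min at room temperature, ten doses in 3% DMSO, 665/620 nm read. The 33P transfer assay used mutant Met R974-S1390 A1209G/V1290L (3.4 nM), 10 μM ATP, 250 μM peptide, pH 7.0, 40 min, nine doses from 1 μM.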

Compound | IC50 (Human Axl) [nM] | IC50 (Human Met) [nM]
COc1cnc2c(Oc3ccc(NC(=O)c4cn(C)c(C)c(C5=CCOCC5)c4=O)cc3F)ccnc2c1 [Compound 12, 5-(3,6-Dihydro-2H-pyran-4-yl)-N-[3-fluoro-4-[(7-methoxy-1,5-naphthyridin-4-yl)oxy]phenyl]-1,6-dimethyl-4-oxopyridine-3-carboxamide] | ≤ 100 | ≤ 100
COc1cc2nccc(Oc3ccc(NC(=O)c4cnc(C)c(C5=CCCC5)c4O)cc3)c2cc1OC [Compound 16, 5-(Cyclopenten-1-yl)-N-[4-(6,7-dimethoxyquinolin-4-yl)oxyphenyl]-4-hydroxy-6-methylpyridine-3-carboxamide] | ≤ 100 | ≤ 100
COc1cc2nccc(Oc3ccc(NC(=O)c4cnc(C)c(C5=CCOCC5)c4O)cc3)c2cc1OC [Compound 17, 5-(3,6-Dihydro-2H-pyran-4-yl)-N-[4-(6,7-dimethoxyquinolin-4-yl)oxyphenyl]-4-hydroxy-6-methylpyridine-3-carboxamide] | ≤ 100 | ≤ 100
COc1cc2nccc(Oc3ccc(NC(=O)c4cnc(C)c(C5=CCCC5)c4O)cc3F)c2cc1OC [Compound 18, 5-(Cyclopenten-1-yl)-N-[4-(6,7-dimethoxyquinolin-4-yl)oxy-3-fluorophenyl]-4-hydroxy-6-methylpyridine-3-carboxamide] | ≤ 100 | ≤ 100
COc1cc2nccc(Oc3ccc(NC(=O)c4cnc(C)c(C5=CCOCC5)c4O)cc3F)c2cc1OC [Compound 19, 5-(3,6-Dihydro-2H-pyran-4-yl)-N-[4-(6,7-dimethoxyquinolin-4-yl)oxy-3-fluorophenyl]-4-hydroxy-6-methylpyridine-3-carboxamide] | ≤ 100 | ≤ 100
C=C(C)n1c(C)cc(C)c(C(=O)Nc2ccc(Oc3ccnc4cc(OC)cnc34)c(F)c2)c1=O [Compound 21, N-[3-Fluoro-4-[(7-methoxy-1,5-naphthyridin-4-yl)oxy]phenyl]-4,6-dimethyl-2-oxo-1-prop-1-en-2-ylpyridine-3-carboxamide] | > 300 | ≤ 100
COc1cc2nccc(Oc3ccc(NC(=O)c4cnc(C)c(C5=CCCCC5)c4O)cc3F)c2cc1OC [Compound 23, 5-(Cyclohexen-1-yl)-N-[4-(6,7-dimethoxyquinolin-4-yl)oxy-3-fluorophenyl]-4-hydroxy-6-methylpyridine-3-carboxamide] | ≤ 100 | ≤ 100
COc1cc2nccc(Oc3ccc(NC(=O)c4cnc(C)c(C5=CCCCC5)c4O)cc3)c2cc1OC [Compound 24, 5-(Cyclohexen-1-yl)-N-[4-(6,7-dimethoxyquinolin-4-yl)oxyphenyl]-4-hydroxy-6-methylpyridine-3-carboxamide] | ≤ 100 | ≤ 100

Now from value to compound:

IC50 (Human Axl) [nM] | IC50 (Human Met) [nM] | Compound
≤ 100 | ≤ 100 | COc1cc2nccc(Oc3ccc(NC(=O)c4cn(CCF)c(C)c(C5=CCCC5)c4=O)cc3F)c2nc1OC [Compound 11, 5-(Cyclopenten-1-yl)-N-[4-[(6,7-dimethoxy-1,5-naphthyridin-4-yl)oxy]-3-fluorophenyl]-1-(2-fluoroethyl)-6-methyl-4-oxopyridine-3-carboxamide]
≤ 100 | ≤ 100 | COc1cc2nccc(Oc3ccc(NC(=O)c4cn(CCF)c(C)c(C5CCCC5)c4=O)cc3F)c2nc1OC [Compound 13, 5-Cyclopentyl-N-[4-[(6,7-dimethoxy-1,5-naphthyridin-4-yl)oxy]-3-fluorophenyl]-1-(2-fluoroethyl)-6-methyl-4-oxopyridine-3-carboxamide]
≤ 100 | ≤ 100 | COc1cc2nccc(Oc3ccc(NC(=O)c4c(C)cc(C)n(C5=CCCC5)c4=O)cc3F)c2nc1OC [Compound 14, 1-(Cyclopenten-1-yl)-N-[4-[(6,7-dimethoxy-1,5-naphthyridin-4-yl)oxy]-3-fluorophenyl]-4,6-dimethyl-2-oxopyridine-3-carboxamide]
≤ 100 | ≤ 100 | COc1cc2nccc(Oc3ccc(NC(=O)c4c(C)cc(C)n(C5CCCC5)c4=O)cc3F)c2nc1OC [Compound 15, 1-Cyclopentyl-N-[4-[(6,7-dimethoxy-1,5-naphthyridin-4-yl)oxy]-3-fluorophenyl]-4,6-dimethyl-2-oxopyridine-3-carboxamide]
≤ 100 | ≤ 100 | C=C(C)n1c(C)cc(C)c(C(=O)Nc2ccc(Oc3ccnc4cc(OC)c(OC)nc34)c(F)c2)c1=O [Compound 20, N-[4-[(6,7-Dimethoxy-1,5-naphthyridin-4-yl)oxy]-3-fluorophenyl]-4,6-dimethyl-2-oxo-1-prop-1-en-2-ylpyridine-3-carboxamide]
≤ 100 | ≤ 100 | COc1cc2nccc(Oc3ccc(NC(=O)c4c(C)c(Br)c(C)n(C5CCCC5)c4=O)cc3F)c2nc1OC [Compound 22, 5-Bromo-1-cyclopentyl-N-[4-[(6,7-dimethoxy-1,5-naphthyridin-4-yl)oxy]-3-fluorophenyl]-4,6-dimethyl-2-oxopyridine-3-carboxamide]
≤ 100 | > 300 | COc1cc2nccc(Oc3ccc(NC(=O)c4cnc(C)c(/C=C/C5CCCC5)c4O)cc3F)c2nc1OC [Compound 25, 5-[(E)-2-Cyclopentylethenyl]-N-[4-[(6,7-dimethoxy-1,5-naphthyridin-4-yl)oxy]-3-fluorophenyl]-4-hydroxy-6-methylpyridine-3-carboxamide]
≤ 100 | ≤ 100 | COc1cc2nccc(Oc3ccc(NC(=O)c4cnc(C)c(/C=C/C5CC5)c4O)cc3F)c2nc1OC [Compound 26, 5-[(E)-2-Cyclopropylethenyl]-N-[4-[(6,7-dimethoxy-1,5-naphthyridin-4-yl)oxy]-3-fluorophenyl]-4-hydroxy-6-methylpyridine-3-carboxamide]
≤ 100 | ≤ 100 | COc1cc2nccc(Oc3ccc(NC(=O)c4cnc(C)c(/C=C/C(C)(C)C)c4O)cc3F)c2nc1OC [Compound 27, N-[4-[(6,7-Dimethoxy-1,5-naphthyridin-4-yl)oxy]-3-fluorophenyl]-5-[(E)-3,3-dimethylbut-1-enyl]-4-hydroxy-6-methylpyridine-3-carboxamide]
